Consider nine molecules from patent US20260131007A1, “Mannose 6-Phosphate Receptor Binding Compounds for the Degradation of Extracellular Proteins” (Avilar Therapeutics, Inc., priority 2023, published 2026).

Where two headings read alike, the source gives them in different places. Bridge positions count the residues as written; N and C are the ends. Square brackets hold non-standard residues; d marks the D form.

The subject of one experiment is K562 cells. The experiment in a line: Ternary complex formation (TCF) in K562 cells, flow cytometry with AF488-labeled human IgG. The experiment is classed as cell-based. As to conditions: AF488-labeled human IgG 300 nM, 4° C., 1 hour. As for the experimental part: K562 cells were seeded in 96-well assay plate using K562 cell medium, then compounds and AF488-labeled human IgG (final concentration of 300 nM) were added at 4° C. and incubated for 1 hour. Afterwards, the cells were washed once with 1×PBS+0.1% BSA (Cold) and centrifuged at 1000 rpm for 5 minutes. Next, cells were re-suspended in 150 μL 1×PBS+0.1% BSA and ran flow cytometry on iQue® Screener PLUS.
In general terms: In flow cytometry, cells or beads pass a laser one at a time.

A further experiment deals with IgG. The experiment in a line: Uptake and degradation in K562 cells (Western blot). The class given is cell-based, human. As to conditions: K562 cells treated with compound and IgG; FIG. 14-17. The procedure: On day one, cells were harvested, counted, and seeded 1 million/well in 6 well plates for each cell line. On day two, cells were treated with compounds and IgG (Sigma, Cat #14506 dissolved in medium). Treated cells were washed three times with PBS, followed by addition of 200 μL of RIPA buffer (+HALT protease and phosphatase inhibitors) per well. Lysates were left on ice for 5 minutes then were collected into microcentrifuge tubes using a cell scraper. Lysates were then kept on a shaker for 30-60 minutes at 4° C. followed by centrifugation at 14,000 rpm at 4° C. for 15 minutes. Then, supernatants were transferred to fresh tubes and total protein concentration of each sample was determined using Pierce BCA kit. Next, 25 ug total protein of each sample was resolved on a 4-20% gels and transferred to PVDF membranes. Membranes were blocked in TBST+5% milk (made fresh) for one hour while shaking at room temperature. Then, the first antibody was added in TBST+5% milk at 4° C. overnight: a) Rabbit anti-human IgG, Abcam; Cat #ab181236-1:1000, b) anti-β-actin, Cell signaling Tech, Cat #3700S)-1:3000. On the next day, membranes were washed with TBST 10 minutes each for three times. Later, the second antibody was added in TBST+5% milk at room temperature over one hour: a) IRDye 800CW Goat anti Rabbit IgG, Licor, Cat #926-32211)-1:10,000; b) IRDye 680RD Goat anti Mouse IgG (Licor Cat #926-68078)-1:10,000. Then, membranes were washed with TBST 10 minutes each for three times. The results were detected by Licor. Data from the uptake and degradation assay is shown in FIG. 14, FIG. 15, FIG. 16, and FIG. 17.

Experiment [1] deals with T1, hIGF-IIR and IgG1 (ternary complex) (Homo sapiens, UniProt P01857+P11717).
T1 construct: purchased R&D Systems 6418-GR
Description: HTRF-based ternary complex formation assay for hIGF-IIR targeting Extracellular Protein Degraders. The class given is binding. From the text:
The ternary complex formation assay is designed to identify and determine the potency of Extracellular Protein Degrader molecules which can induce the formation of ternary complex between the Extracellular Protein Degrader hIGF-IIR. Titrating Extracellular Protein Degrader to fixed amount of hIGF-IIR results in a bell-shaped curve (except molecules whose binary complex affinity between Extracellular Protein Degrader and hIGF-IIR). The peak mean represents Extracellular Protein Degrader concentration at which maximum ternary complex is formed. Too much or too little Extracellular Protein Degrader leads to decreased ternary complex formation due to formation of binary complex (Hook effect). Dose response of Extracellular Protein Degrader compounds (16-point 3-fold dilution series, 100X) were prepared by Echo Acoustic Liquid Handler (Beckman Coulter Life Sciences) using 384-well LDV microplate. Then 200 nL of the solutions were transferred to an OptiPlate 384-well microplate (PerkinElmer, 6007290). To the assay plate, 10 μL working solution containing 60 nM of Biotinylated-IgG1 (Viva 20211108) and 60 nM of His-tagged hIGF-IIR (R&D Systems, 6418-GR) in assay buffer 50 mM Tris, pH 7.5, 150 mM NaCl, 50 mM CaCl2, 0.01% Tween-20 were added. The plate was incubated for 60 min at room temperature with gentle shaking to allow molecular interaction to reach equilibration. Following this, 10 μL of HTRF detection solution containing 15 nM Streptavidin-d2 (PerkinElmer, 610SADLA) and 0.7 nM MAb Anti 6HIS—Tb cryptate (PerkinElmer, 61HISTLA) in PPI Terbium detection buffer (PerkinElmer, 61DB10RDF) were added. The assay plate was incubated at room temperature with gentle shaking for 60 min to allow HTRF signal to develop. The plate was gently spun on a centrifuge then placed on an EnVision plate reader (Perkin Elmer, EnVision 2104) to read fluorescence ratio of 665 nm/615 nm. Data were analyzed by fitting with Bell-shaped non-linear regression model using GraphPad Prism (GraphPad Software, LLC; version 9.4.1). Mean fluorescence intensity is graphed versus compound concentration and the EC50 for TCF is calculated from the inflection point of the curve (GraphPad).
In general terms: TR-FRET usually uses a lanthanide donor and a delayed reading to cut background.

The target in experiment [2] is AF488-labeled human IgG (human). The experiment in a line: flow cytometry, ternary complex formation on K562 cells at 4 C, compound + 300 nM AF488-labelled human IgG; grade read by the legend '<50 nM = ***'.
The target in experiment [3] is Biotinylated-IgG1 (Viva 20211108). The experiment in a line: HTRF ternary complex formation: compound titrated into 60 nM biotinylated IgG1 + 60 nM His-tagged hIGF-IIR (R&D 6418-GR); grade read by the legend '<50 nM = ***'.
Where [4] appears, read: biotinylated IgG1 and His-tagged hIGF-IIR, 60 nM each, read-out: TCF (HTRF) EC50.

One may read the EC50 as the concentration giving half of the maximal effect. `CC(C)C[C@H]1NC(=O)[C@H](Cc2c[nH]cn2)NC(=O)[C@H](Cc2c[nH]c3ccccc23)NC(=O)[C@H](C)NC(=O)[C@@H]2CSSC[C@H](NC(=O)[C@H](Cc3c[nH]c4ccccc34)NC(=O)[C@@H](C(C)C)NC(=O)[C@@H](CC(C)C)NC(=O)[C@H](CCC(=O)O)NC(=O)CNC1=O)C(=O)N[C@H]([C@@H](C)O)C(=O)N1CCC[C@@H]1C(=O)N1C[C@@H](NC(=O)CCOCCOCCOCCOCCOCCOCCOCCOCCn3cc(CCCCNC(=O)Nc4ccc5c(c4)Cc4cc(O[C@H]6O[C@H](CCP(=O)(O)O)[C@@H](O)[C@H](O)[C@@H]6O)ccc4-5)nn3)C[C@H]1C(=O)N[C@@H](CC(=O)O)C(=O)N2` [Compound 12] came in with an EC50 in the experiment with K562 cells below 50 nM. Also, in the experiment on IgG, the “degradation of IgG (gel electrophoresis image)” value (“degradation” for short) was “degradation of IgG”. Consider `CC(C)C[C@@H]1NC(=O)[C@H](Cc2c[nH]cn2)NC(=O)[C@H](Cc2c[nH]c3ccccc23)NC(=O)[C@H](C)NC(=O)[C@@H]2CSSC[C@H](NC(=O)[C@H](Cc3c[nH]c4ccccc34)NC(=O)[C@H](C(C)C)NC(=O)[C@H](CC(C)C)NC(=O)[C@H](CCC(=O)O)NC(=O)CNC1=O)C(=O)N[C@@H]([C@@H](C)O)C(=O)N1CCC[C@@H]1C(=O)N1C[C@@H](NC(=O)COCCOCCOCC(=O)NC(COCCC(=O)NCCOCCn3cc([C@H]4O[C@H](CCP(=O)(O)O)[C@@H](O)[C@H](O)[C@@H]4O)nn3)(COCCC(=O)NCCOCCn3cc([C@H]4O[C@H](CCP(=O)(O)O)[C@@H](O)[C@H](O)[C@@H]4O)nn3)COCCC(=O)NCCOCCn3cc([C@H]4O[C@H](CCP(=O)(O)O)[C@@H](O)[C@H](O)[C@@H]4O)nn3)C[C@H]1C(=O)N[C@@H](CC(=O)O)C(=O)N2` [Compound 2], for which the EC50 (in experiment [1]; in the experiment with K562 cells) was below 50 nM in each case. For the same molecule, the “degradation” value in the experiment on IgG is reported as “degradation of IgG”. Consider `COc1ccc(OC2O[C@H](CCP(=O)(O)Cc3cccc(OCc4cn(CCOCCNC(=O)CCOCC(COCCC(=O)NCCOCCn5cc(COc6cccc(CP(=O)(O)CC[C@@H]7OC(Oc8ccc(OC)cc8)[C@H](O)[C@H](O)[C@H]7O)c6)nn5)(COCCC(=O)NCCOCCn5cc(COc6cccc(CP(=O)(O)CC[C@@H]7OC(Oc8ccc(OC)cc8)[C@H](O)[C@H](O)[C@H]7O)c6)nn5)NC(=O)COCCOCCOCC(=O)N[C@H]5C[C@H]6C(=O)N[C@@H](CC(=O)O)C(=O)N[C@H]7CSSC[C@H](NC(=O)[C@H](Cc8c[nH]c9ccccc89)NC(=O)[C@H](C(C)C)NC(=O)[C@H](CC(C)C)NC(=O)[C@H](CCC(=O)O)NC(=O)CNC(=O)[C@H](CC(C)C)NC(=O)[C@H](Cc8cnc[nH]8)NC(=O)[C@H](Cc8c[nH]c9ccccc89)NC(=O)[C@H](C)NC7=O)C(=O)N[C@@H]([C@@H](C)O)C(=O)N7CCC[C@@H]7C(=O)N6C5)nn4)c3)[C@@H](O)[C@H](O)[C@@H]2O)cc1` (stereo partly shown) [Compound 1], for which the EC50 in experiment [1] was below 50 nM.

For the molecule `CC(C)C[C@@H]1NC(=O)[C@H](Cc2c[nH]cn2)NC(=O)[C@H](Cc2c[nH]c3ccccc23)NC(=O)[C@H](C)NC(=O)[C@@H]2CSSC[C@H](NC(=O)[C@H](Cc3c[nH]c4ccccc34)NC(=O)[C@H](C(C)C)NC(=O)[C@H](CC(C)C)NC(=O)[C@H](CCC(=O)O)NC(=O)CNC1=O)C(=O)N[C@@H]([C@@H](C)O)C(=O)N1CCC[C@@H]1C(=O)N1C[C@@H](NC(=O)CCOCCOCCOCCOCCOCCOCCOCCOCCn3cc(CCO[C@H]4O[C@H](CCP(=O)(O)O)[C@@H](O)[C@H](O)[C@@H]4O)nn3)C[C@H]1C(=O)N[C@@H](CC(=O)O)C(=O)N2` [Compound 6], in experiment [1] (setting [4]), the EC50 is below 50 nM. Regarding `CC(C)C[C@@H]1NC(=O)[C@H](Cc2cnc[nH]2)NC(=O)[C@H](Cc2c[nH]c3ccccc23)NC(=O)[C@H](C)NC(=O)[C@@H]2CSSC[C@H](NC(=O)[C@H](Cc3c[nH]c4ccccc34)CC(=O)[C@H](C(C)C)NC(=O)[C@H](CC(C)C)NC(=O)[C@H](CCC(=O)O)NC(=O)CNC1=O)C(=O)N[C@@H]([C@@H](C)O)C(=O)N1CCC[C@@H]1C(=O)N1C[C@@H](NC(=O)CCOCCOCCOCCN(CCOCCOCCOCCn3cc(CCO[C@H]4O[C@H](CCP(=O)(O)O)[C@@H](O)[C@H](O)[C@@H]4O)nn3)CCOCCOCCOCCn3cc(CCO[C@H]4O[C@H](CCP(=O)(O)O)[C@@H](O)[C@H](O)[C@@H]4O)nn3)C[C@H]1C(=O)N[C@@H](CC(=O)O)C(=O)N2` [Compound 9], in experiment [1], the concentration for a half-maximal effect (EC50) was below 50 nM.

Take `COc1ccc(OC2O[C@H](CCP(=O)(O)Cc3cn(CCOCCOCCOCCOCCOCCOCCOCCOCCC(=O)N[C@H]4C[C@H]5C(=O)N[C@@H](CC(=O)O)C(=O)N[C@H]6CSSC[C@H](NC(=O)[C@H](Cc7c[nH]c8ccccc78)NC(=O)[C@@H](C(C)C)NC(=O)[C@@H](CC(C)C)NC(=O)[C@H](CCC(=O)O)NC(=O)CNC(=O)[C@@H](CC(C)C)NC(=O)[C@H](Cc7cnc[nH]7)NC(=O)[C@H](Cc7c[nH]c8ccccc78)NC(=O)[C@H](C)NC6=O)C(=O)N[C@H]([C@@H](C)O)C(=O)N6CCC[C@@H]6C(=O)N5C4)nn3)[C@@H](O)[C@H](O)[C@@H]2O)cc1` (stereo partly shown) [Compound 11]: the EC50 in experiment [1] (setting [4]) was below 50 nM. As to `CC(C)C[C@@H]1NC(=O)[C@H](Cc2c[nH]cn2)NC(=O)[C@H](Cc2c[nH]c3ccccc23)NC(=O)[C@H](C)NC(=O)[C@@H]2CSSC[C@H](NC(=O)[C@H](Cc3c[nH]c4ccccc34)NC(=O)[C@H](C(C)C)NC(=O)[C@H](CC(C)C)NC(=O)[C@H](CCC(=O)O)NC(=O)CNC1=O)C(=O)N[C@@H]([C@@H](C)O)C(=O)N1CCC[C@@H]1C(=O)N1C[C@@H](NC(=O)CCOCCOCCOCCOCCOCCOCCOCCOCCn3cc([C@H]4O[C@H](CCP(=O)(O)O)[C@@H](O)[C@H](O)[C@@H]4O)nn3)C[C@H]1C(=O)N[C@@H](CC(=O)O)C(=O)N2` [Compound 8], the EC50 (in experiment [1] (setting [4]); in the experiment on K562 cells) was below 50 nM in each case. Besides, the “degradation” value with IgG is “degradation of IgG”.

B1: Compound 8 (peptide)
peptide: cyclo(ELVWCT[dP]PDCAWHLG)
modifications: disulfide 5-10; not fully specified (residue 8); also: one triazole-linked A20 group on the PEG8 linker
Turning to B1, the concentration for a half-maximal effect (EC50) in experiment [2] and in experiment [3] was below 50 nM throughout.

B2: Compound 2 (peptide)
peptide: cyclo(ELVWCT[dP]PDCAWHLG)
modifications: disulfide 5-10; not fully specified (residue 8); also: trivalent linker structure not given here
As to B2, the EC50 in experiment [2] and in experiment [3] was below 50 nM throughout.
